Earlier results as cited in patent US20240398764A1, “METHODS OF TREATING DISEASES ASSOCIATED WITH SENESCENT CELL ACCUMULATION” (University of Florida Research Foundation, Incorporated, priority 2021, published 2024).

How the values were obtained:
SnCs = settings: vs ABT263; cited from earlier work
platelets [1] = settings: vs ABT263; cited from earlier work
platelets [2] = settings: literature statement; cited from earlier work

| SMILES | Potency against SnCs compared with ABT263 (SnCs) | Toxicity to platelets compared with ABT263 (platelets [1]) | Platelet apoptosis / thrombocytopenia (platelets [2]) |
| --- | --- | --- | --- |
| CC1(C)CCC(c2ccc(Cl)cc2)=C(CN2CCN(c3ccc(C(=O)NS(=O)(=O)c4ccc(N[C@H](CCN5CCN(C(=O)CCCn6cc(COCCOCCNc7cccc8c7C(=O)N(C7CCC(=O)NC7=O)C8=O)nn6)CC5)CSc5ccccc5)c(S(=O)(=O)C(F)(F)F)c4)cc3)CC2)C1 (stereo partly shown) [PZ15227] | equally or slightly more potent against SnCs | less toxic to platelets |  |
| CC1(C)CCC(c2ccc(Cl)cc2)=C(CN2CCN(c3ccc(C(=O)NS(=O)(=O)c4ccc(N[C@H](CCN5CCOCC5)CSc5ccccc5)c(S(=O)(=O)C(F)(F)F)c4)cc3)CC2)C1 [ABT263] |  |  | induces platelet apoptosis and results in severe thrombocytopenia |
| CC1(C)CCC(CN2CCN(c3ccc(C(=O)NS(=O)(=O)c4ccc(NCC5CCOCC5)c([N+](=O)[O-])c4)c(Oc4cnc5[nH]ccc5c4)c3)CC2)=C(c2ccc(Cl)cc2)C1 [ABT199] |  |  | does not induce thrombocytopenia |
